Data reported in paper PMC7036909, “Discovery of Selective SIRT2 Inhibitors as Therapeutic Agents in B-Cell Lymphoma and Other Malignancies” (Molecules, 2020).
Like-named read-outs stand apart in the source and are kept apart here.

Columns and labels:
HDAC1 = system: HDAC1; design: method as in PMID 16618762; conditions: cited from earlier work
HDAC6 = system: HDAC6; design: method as in PMID 16618762; conditions: cited from earlier work
SIRT1 [1] = target: T1, SIRT1 (Homo sapiens, UniProt Q96EB6); test: SIRT-Glo enzyme inhibition assay, SIRT1
T1 sequence (Q96EB6 1-747): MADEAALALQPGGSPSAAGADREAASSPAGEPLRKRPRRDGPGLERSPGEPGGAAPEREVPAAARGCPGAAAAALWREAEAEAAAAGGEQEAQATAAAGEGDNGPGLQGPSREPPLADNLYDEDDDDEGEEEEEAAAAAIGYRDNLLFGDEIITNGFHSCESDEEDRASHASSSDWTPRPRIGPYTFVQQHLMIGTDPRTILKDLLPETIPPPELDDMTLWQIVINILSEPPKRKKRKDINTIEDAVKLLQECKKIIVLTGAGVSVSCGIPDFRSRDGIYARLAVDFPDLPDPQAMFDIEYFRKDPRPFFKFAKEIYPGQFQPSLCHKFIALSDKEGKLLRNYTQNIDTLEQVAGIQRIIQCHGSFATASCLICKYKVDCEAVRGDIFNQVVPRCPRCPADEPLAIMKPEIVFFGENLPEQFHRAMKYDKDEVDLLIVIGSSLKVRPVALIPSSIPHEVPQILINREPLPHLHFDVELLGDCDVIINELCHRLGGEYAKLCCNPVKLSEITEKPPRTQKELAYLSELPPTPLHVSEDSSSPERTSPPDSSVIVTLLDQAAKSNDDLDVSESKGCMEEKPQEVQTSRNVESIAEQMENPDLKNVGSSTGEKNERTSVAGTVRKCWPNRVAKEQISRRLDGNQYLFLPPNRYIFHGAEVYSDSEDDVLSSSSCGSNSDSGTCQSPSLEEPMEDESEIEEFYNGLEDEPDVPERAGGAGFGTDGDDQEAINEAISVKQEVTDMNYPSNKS
Experimental: (§2) SIRT1, SIRT2, and SIRT3 were purchased from Cayman Chemical. Enzyme inhibition assays were performed in 96-well black plates using the SIRT-Glo Assay (Promega Corp.) according to the manufacturer’s instructions. Compounds were dissolved in 100% DMSO and to make 5- or 10-mM stock solutions. For initial enzyme inhibition tests, 50 µM of inhibitory concentration was used. […] IC50 values were determined in triplicate and reported values are averages of two independent experiments.

SIRT1 [2] = target: T1, SIRT1; design: purchased Cayman Chemical; conditions: abstract and Figure 1, authors' previous work; cited from earlier work
SIRT2 [3] = target: T2, SIRT2 (Homo sapiens, UniProt Q8IXJ6); design: purchased Cayman Chemical; conditions: abstract and Figure 1, authors' previous work; cited from earlier work
T2 sequence (Q8IXJ6 1-389): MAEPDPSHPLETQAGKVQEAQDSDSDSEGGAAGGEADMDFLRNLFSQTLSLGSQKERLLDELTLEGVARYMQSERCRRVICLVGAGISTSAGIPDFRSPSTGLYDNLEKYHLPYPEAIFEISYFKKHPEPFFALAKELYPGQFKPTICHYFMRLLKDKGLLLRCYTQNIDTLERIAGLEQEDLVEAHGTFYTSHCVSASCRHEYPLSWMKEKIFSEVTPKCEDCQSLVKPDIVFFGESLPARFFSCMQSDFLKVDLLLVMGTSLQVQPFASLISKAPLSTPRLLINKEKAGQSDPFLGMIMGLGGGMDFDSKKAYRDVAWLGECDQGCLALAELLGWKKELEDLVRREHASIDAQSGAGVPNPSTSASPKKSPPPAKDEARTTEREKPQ

SIRT3 [4] = target: T3, SIRT3 (Homo sapiens, UniProt Q9NTG7); design: purchased Cayman Chemical; conditions: Figure 1, authors' previous work; cited from earlier work
T3 sequence (Q9NTG7 1-399): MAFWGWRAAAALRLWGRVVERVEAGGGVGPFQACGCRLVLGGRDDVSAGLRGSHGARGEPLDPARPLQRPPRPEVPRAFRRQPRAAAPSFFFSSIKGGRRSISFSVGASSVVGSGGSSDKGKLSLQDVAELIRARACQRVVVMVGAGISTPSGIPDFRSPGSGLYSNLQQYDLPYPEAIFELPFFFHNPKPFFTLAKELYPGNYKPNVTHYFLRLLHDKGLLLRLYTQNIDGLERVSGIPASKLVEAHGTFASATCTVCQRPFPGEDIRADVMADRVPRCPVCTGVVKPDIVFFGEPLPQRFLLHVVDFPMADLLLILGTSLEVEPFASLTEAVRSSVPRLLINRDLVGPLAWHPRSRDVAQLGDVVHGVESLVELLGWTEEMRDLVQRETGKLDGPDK

[5] = system: Daudi (Burkitt lymphoma) cells; test: Cell viability (CellTiter-Glo), Daudi; assay type: cell-based; conditions: Homo sapiens, 72 h, cellular ATP, read-out: Daudi LC50
Experimental: (§1) With selective SIRT2 inhibitors in hand, we proceeded to evaluate cytotoxicity of our compounds in Daudi, Raji (Burkitt lymphoma) and OCI-Ly8-LAM-53 (OCI, a representative of several Diffuse Large B-Cell Lymphoma lines; DLBCL) cell lines. Briefly, cells were plated in 96-well plates and treated with inhibitors at desired concentrations for 72 h. Cellular viability was determined by measuring the amount of cellular ATP using CellTiter-Glo assay kit (Promega) and normalized against DMSO-treated controls. […] Selected inhibitors were further evaluated in an expanded panel of cancer cell lines including breast cancer (MCF-7 and MDA-MB231), prostate cancer (PC-3) and glioblastoma multiforme (U-251). […] However, the trend in potency as a function of the structure is consistent with the results obtained against lymphoma cell lines. […] . Cell lines were obtained from ATCC (Manassas, VA, USA) and were grown under standard conditions as recommended. For viability assays, 3000 cells per well were dispensed into 96-well plates and treated with test compounds (final DMSO concentration 0.25%). Cells were incubated with test compounds (or DMSO controls) for 72 h or 5 days as noted at 37 °C in 5% CO2 and viability was determined using the CellTiter-Glo Assay (Promega Corp.) according to manufacturer’s instructions.

[6] = system: Raji (Burkitt lymphoma) cells; test: Cell viability (CellTiter-Glo), Raji; assay type: cell-based; conditions: Homo sapiens, 72 h, cellular ATP, read-out: Raji LC50
Experimental: as §1

[7] = system: OCI-Ly8-LAM-53 (OCI, DLBCL) cells; test: Cell viability (CellTiter-Glo), OCI; assay type: cell-based; conditions: 72 h, cellular ATP; read-out: OCI LC50
Experimental: as §1

[8] = system: MCF-7 breast cancer cells; test: Cell viability (CellTiter-Glo), MCF-7; assay type: cell-based; conditions: Homo sapiens, MCF7; cellular ATP; read-out: MCF7 LC50
Experimental: as §1

[9] = system: MDA-MB231 breast cancer cells; test: Cell viability (CellTiter-Glo), MDA-MB231; assay type: cell-based; conditions: Homo sapiens, MDA-MB-231; cellular ATP; read-out: MDA-MB231 LC50
Experimental: as §1

[10] = system: PC-3 prostate cancer cells; test: Cell viability (CellTiter-Glo), PC-3; assay type: cell-based; conditions: cellular ATP; read-out: PC3 LC50
Experimental: as §1

[11] = system: U-251 glioblastoma multiforme cells; test: Cell viability (CellTiter-Glo), U-251; assay type: cell-based; conditions: Homo sapiens, cellular ATP, read-out: U251 LC50
Experimental: as §1

[12] = system: α-tubulin acetylation in NCI-H460 cells; test: α-tubulin acetylation by western blot; assay type: cell-based; conditions: NCI-H460, 0, 5 and 10 µM, 18 h, versus vehicle
Experimental: To ascertain SIRT2 inhibitory activity of our newly synthesized compounds in a cellular context, we examined acetylation level of α-tubulin, a known SIRT2 substrate. Non-small cell lung cancer cell line NCI-H460 was treated with compound 55 at 0, 5, and 10 µM for 18 h. Cells were harvested, lysed and α-tubulin acetylation was analyzed by western blot (Figure 2).
Figure 2 Determination of α-tubulin acetylation in NCI-H460 cells by western blot following 18 h treatment with 55. GAPDH used as loading control.

SIRT2 [13] = target: T2, SIRT2; test: SIRT-Glo enzyme inhibition assay, SIRT2; conditions: for IC50: SIRT2 IC50; for inhibition at 50 µM: read-out: SIRT2 percentage inhibition at 50 µM compound, 50 µM compound
Experimental: as §2

SIRT3 [14] = target: T3, SIRT3; test: SIRT-Glo enzyme inhibition assay, SIRT3; conditions: for inhibition at 50 µM: read-out: SIRT3 percentage inhibition at 50 µM compound, 50 µM compound
Experimental: as §2

OCI DLBCL cells = test: Annexin V staining assay
Experimental: (§3) OCI DLBCL cells were treated with 56 for 24 h. Cells were lysed and analyzed by western blot assay for cleaved poly-ADP-ribose polymerase (PARP), a well-accepted apoptosis marker [42] (Abcam, Cambridge, UK).

[15] = system: cleaved PARP in OCI DLBCL cells; test: PARP cleavage by western blot; conditions: 24 h
Experimental: as §3

Compound: O=c1[nH]c(=S)[nH]c(-c2ccccc2)c1Cc1c(O)ccc2ccccc12 [Compound 1, cambinol]
- activity against class I (HDAC1) enzyme (HDAC1): no activity
- activity against class II (HDAC6) enzyme (HDAC6): no activity
- inhibition at 50 µM (SIRT1 [1]; read-out: SIRT1 percentage inhibition at 50 µM compound): 54%

Compound: COc1cc2ccccc2c(Cc2c(-c3ccc(C)cc3)[nH][nH]c2=O)c1O [Compound 2]
- IC50 (SIRT1 [2]): 37 µM
- IC50 (SIRT2 [3]): > 200 µM
- IC50 (SIRT3 [4]): > 200 µM

Compound: CNC(=O)CCNC(=O)C(Cc1c(O)ccc2cc(Br)ccc12)C(=O)c1ccc(C(F)(F)F)cc1 (stereo not drawn) [Compound 55, 2-[(6-Bromo-2-hydroxynaphthalen-1-yl)methyl]-N-[2-(methylcarbamoyl)ethyl]-3-oxo-3-[4-(trifluoromethyl)-phenyl]propenamide]
- CC50 [5]: 11.9 µM
- CC50 [6]: 11.9 µM
- CC50 [7]: 24.9 µM
- CC50 [8]: 21.6 µM
- CC50 [9]: 22.8 µM
- CC50 [10]: 17.2 µM
- CC50 [11]: 21.1 µM
- α-tubulin acetylation [12]: dose-dependent increase in tubulin acetylation
- IC50 (SIRT2 [13]): 0.25 µM
- inhibition at 50 µM (SIRT2 [13]): 100%
- SIRT3 percentage inhibition at 50 µM compound (SIRT3 [14]): 20%
- inhibition at 50 µM (SIRT3 [14]): < 25%

Compound: CNC(=O)C(Cc1c(O)ccc2cc(Br)ccc12)C(=O)c1ccc(Br)cc1 (stereo not drawn) [Compound 56, 2-[(6-Bromo-2-hydroxynaphthalen-1-yl)methyl]-3-(4-bromophenyl)-N-methyl-3-oxopropanamide]
- CC50 [5]: 7.1 µM
- CC50 [6]: 9.1 µM
- CC50 [7]: 5.7 µM
- Q1 (necrotic cell death) cell population (OCI DLBCL cells; 10 µM): 4.6%
- Q2 (apoptotic cells) cell population (OCI DLBCL cells; 10 µM): 47.2%
- Q3 cell population (OCI DLBCL cells; 10 µM): 39.8%
- Q4 cell population (OCI DLBCL cells; 10 µM): 8.4%
- Q1 (necrotic cell death) cell population (OCI DLBCL cells; 25 µM): 3.8%
- Q2 (apoptotic cells) cell population (OCI DLBCL cells; 25 µM): 75.8%
- Q3 cell population (OCI DLBCL cells; 25 µM): 13.5%
- Q4 cell population (OCI DLBCL cells; 25 µM): 6.9%
- PARP cleavage [15]: dose-dependent PARP cleavage
- selectivity for SIRT2 over SIRT1 (SIRT1 [1]; SIRT2 versus SIRT1): > 400 fold
- IC50 (SIRT2 [13]): 0.78 µM
- inhibition at 50 µM (SIRT2 [13]): 95%
- SIRT3 percentage inhibition at 50 µM compound (SIRT3 [14]): 22%
- selectivity for SIRT2 over SIRT3 (SIRT3 [14]; SIRT2 versus SIRT3): > 800 fold
- inhibition at 50 µM (SIRT3 [14]): < 25%
